Test in all cases: Ras GTP binding domain inhibition assay (labeled GTP)
The target in one assay is KRas G12C mutant (Homo sapiens (Human), UniProt P01116, G12C). Conditions: 20 μM compound; KRas G12C; read-out: % Inhibition at 20 μM of K-Ras mutant and wild-type protein, KRas G12C. In short, it runs like this: (§1)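 Inhibition of labeled GTP binding is measured on immobilized His-KRas protein in Tris buffer pH 7.5 with 1 mM MgCl2 and 1 mM DTT.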
A further assay has as its target KRas wild type (Homo sapiens (Human), UniProt P01116). The note with it: 20 μM compound; KRas wild type; read-out: % Inhibition at 20 μM of K-Ras mutant and wild-type protein, KRas wild type. In short, it runs like this:
as §1

The target in another assay is KRas G12D mutant protein (Homo sapiens (Human), UniProt P01116, G12D). Conditions: 20 μM compound; KRas G12D; read-out: % Inhibition at 20 μM of K-Ras mutant and wild-type protein, KRas G12D.
Sequence of KRas G12D mutant protein (P01116-2 other isoform, or with tags, fused parts or gaps G12D): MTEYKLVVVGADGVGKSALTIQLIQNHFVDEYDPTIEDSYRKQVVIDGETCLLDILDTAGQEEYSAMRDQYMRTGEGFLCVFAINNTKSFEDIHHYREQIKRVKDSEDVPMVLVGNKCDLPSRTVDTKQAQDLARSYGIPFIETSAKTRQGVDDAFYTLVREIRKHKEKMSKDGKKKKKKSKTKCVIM

Sequence of KRas wild type (P01116-2 other isoform, or with tags, fused parts or gaps): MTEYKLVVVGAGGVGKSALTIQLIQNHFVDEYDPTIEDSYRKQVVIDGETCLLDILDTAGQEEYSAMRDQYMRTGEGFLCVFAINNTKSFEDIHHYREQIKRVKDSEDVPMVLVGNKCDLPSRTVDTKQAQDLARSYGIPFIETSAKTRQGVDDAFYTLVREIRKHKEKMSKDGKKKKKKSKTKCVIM
Sequence of KRas G12C mutant (P01116-2 other isoform, or with tags, fused parts or gaps G12C): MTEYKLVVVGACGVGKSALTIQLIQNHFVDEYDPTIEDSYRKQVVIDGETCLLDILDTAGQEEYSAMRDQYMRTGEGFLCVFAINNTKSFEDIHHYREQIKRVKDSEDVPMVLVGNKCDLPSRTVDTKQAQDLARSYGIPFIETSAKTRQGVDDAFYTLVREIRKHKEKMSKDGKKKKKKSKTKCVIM

For `COc1ccc(-c2csc3c(O)nc(-c4nccn4C)nc23)cn1` [drawing 3613], the inhibition at 20 µM at KRas G12C mutant was 25 to 50%; at KRas wild type it was 25 to 50%; at KRas G12D mutant protein it was 51 to 75%.
As for `Oc1nc(-c2ncccn2)nc2c(-c3cccc(C(F)(F)F)c3)csc12` [drawing 3608], the results for the inhibition at 20 µM on KRas G12C mutant, on KRas wild type and on KRas G12D mutant protein were 25 to 50%, 51 to 75% and 25 to 50%, respectively.
For `Cn1ccnc1-c1nc(NCCCO)c2c(-c3ccccc3)c(-c3ccccc3)sc2n1` [drawing 3579], the inhibition at 20 µM at KRas G12C mutant was in the range of 25 to 50%; at KRas wild type it was 25 to 50%; on KRas G12D mutant protein, 51 to 75%.
For `Cc1sc2c(O)nc(-c3nccn3C)nc2c1-c1cccc(C(F)(F)F)c1` [drawing 3599], the inhibition at 20 µM at KRas G12C mutant, on KRas wild type and on KRas G12D mutant protein was 1 to 25% throughout.
As to `Cn1ccnc1-c1nc(O)c2scc(-c3cccc(OC(F)(F)F)c3)c2n1` [drawing 3603], the inhibition at 20 µM at KRas G12C mutant is 1 to 25%; at KRas wild type it was 25 to 50%; at KRas G12D mutant protein it was 51 to 75%.
Consider `COCCNc1nc(-c2nccn2C)nc2sc(C3CCOCC3)c(-c3ccccc3)c12` [drawing 3590], for which the figures for the inhibition at 20 µM on KRas G12C mutant, at KRas wild type and on KRas G12D mutant protein were 25 to 50%, 51 to 75% and 51 to 75%, respectively.
In the case of `CC(C)COc1ccc(-c2c(-c3ccccc3)sc3c(O)nc(-c4nccn4C)nc23)cn1` [drawing 3587], the inhibition at 20 µM at KRas G12C mutant is 25 to 50%; on KRas wild type, 51 to 75%; on KRas G12D mutant protein, 51 to 75%.
Turning to `Cn1ccnc1-c1nc(O)c2scc(-c3ccc(C(C)(C)C)cc3)c2n1` [drawing 3619], the figures for the inhibition at 20 µM at KRas G12C mutant, at KRas wild type and at KRas G12D mutant protein were 25 to 50%, 1 to 25% and 1 to 25%, respectively.
In the case of `COCCNc1nc(-c2nccn2C)nc2sc(-c3ccccc3)c(-c3ccccc3Cl)c12` [drawing 3580], the results for the inhibition at 20 µM on KRas G12C mutant, on KRas wild type and at KRas G12D mutant protein were 25 to 50%, 1 to 25% and 25 to 50%, respectively.
Turning to `COCCNc1nc(-c2cn(C)cn2)nc2sc(C)c(-c3ccccc3)c12` [drawing 3585], the inhibition at 20 µM was 25 to 50% at KRas G12C mutant, 51 to 75% on KRas wild type and 25 to 50% at KRas G12D mutant protein.
Take `COCCNc1nc(-c2ccncn2)nc2sc(-c3ccccc3)c(-c3ccccc3)c12` [drawing 3574]: the inhibition at 20 µM was 1 to 25% on KRas G12C mutant, 1 to 25% on KRas wild type and 0% at KRas G12D mutant protein.
Consider `COCCNc1nc(-c2nccn2C)nc2sc(-c3ccccc3)c(-c3ccncc3)c12` [drawing 3596], for which the inhibition at 20 µM lay in the range of 25 to 50% at KRas G12C mutant, 51 to 75% on KRas wild type and 51 to 75% at KRas G12D mutant protein.
With `Cc1ccccc1-c1c(C)sc2c(O)nc(-c3nccn3C)nc12`, the figures for the inhibition at 20 µM at KRas G12C mutant, at KRas wild type and at KRas G12D mutant protein were 1 to 25%, 25 to 50% and 25 to 50%, respectively.
With `COCCNc1nc(-c2cn(C)cn2)nc2sc(-c3ccccc3)c(-c3ccccc3)c12` [drawing 3583], the results for the inhibition at 20 µM at KRas G12C mutant, at KRas wild type and on KRas G12D mutant protein were 25 to 50%, 51 to 75% and 25 to 50%, respectively.
On to `COCCNc1nc(-c2ccccn2)nc2sc(-c3ccccc3)c(-c3ccccn3)c12` [drawing 3620], for which the inhibition at 20 µM on KRas G12C mutant is 1 to 25%; on KRas wild type, 0%; at KRas G12D mutant protein, 1 to 25%.
With `COCC(C)Nc1nc(-c2nccn2C)nc2sc(-c3ccccc3)c(-c3ccccc3)c12` (stereo not drawn) [drawing 3577], the inhibition at 20 µM at KRas G12C mutant, on KRas wild type and on KRas G12D mutant protein was 1 to 25% each time.
Regarding `COCCNc1nc(-c2nccn2C)nc2sc(-c3ccccc3)c(-c3ccccn3)c12` [drawing 3622], the figures for the inhibition at 20 µM on KRas G12C mutant, on KRas wild type and at KRas G12D mutant protein were 25 to 50%, 51 to 75% and 25 to 50%, respectively.
For `CC(C)Oc1ccc(-c2c(-c3ccccc3)sc3c(O)nc(-c4nccn4C)nc23)cc1F` [drawing 3611], the values for the inhibition at 20 µM at KRas G12C mutant, at KRas wild type and at KRas G12D mutant protein were 1 to 25%, 25 to 50% and 25 to 50%, respectively.
With `CCOCCNc1nc(-c2nccn2C)nc2sc(-c3ccccc3)c(-c3ccccc3)c12` [drawing 3575], the inhibition at 20 µM at KRas G12C mutant, on KRas wild type and at KRas G12D mutant protein was 51 to 75% throughout.
In the case of `COCCNc1nc(-c2nccn2C)nc2sc(-c3ccccc3Cl)c(-c3ccccc3)c12` [drawing 3581], the inhibition at 20 µM at KRas G12C mutant, at KRas wild type and on KRas G12D mutant protein was 1 to 25% each time.
As to `Cn1ccnc1-c1nc(O)c2scc(-c3cccc(C(F)(F)F)c3)c2n1` [drawing 3598], the inhibition at 20 µM on KRas G12C mutant was in the range of 1 to 25%; on KRas wild type it was 25 to 50%; at KRas G12D mutant protein, 25 to 50%.
On to `CC(O)CNc1nc(-c2nccn2C)nc2sc(-c3ccccc3)c(-c3ccccc3)c12` (stereo not drawn) [drawing 3569], for which the inhibition at 20 µM at KRas G12C mutant, on KRas wild type and at KRas G12D mutant protein was 1 to 25% throughout.
Turning to `CC(C)OCCNc1nc(-c2nccn2C)nc2sc(-c3ccccc3)c(-c3ccccc3)c12` [drawing 3567], the inhibition at 20 µM at KRas G12C mutant, at KRas wild type and at KRas G12D mutant protein was 51 to 75% each time.
With `Cc1sc2c(O)nc(-c3nccn3C)nc2c1-c1ccc(OC(C)C)c(F)c1` [drawing 3610], the inhibition at 20 µM was 1 to 25% on KRas G12C mutant, 25 to 50% at KRas wild type and 51 to 75% at KRas G12D mutant protein.
For `CCOCCOc1nc(-c2nccn2C)nc2sc(-c3ccccc3)c(-c3ccccc3)c12` [drawing 3572] the same measures were 0%, 25 to 50% and 1 to 25%.
For `Cn1ccnc1-c1nc(O)c2sc(-c3ccccc3)c(-c3ccccc3Cl)c2n1` [drawing 3595] the same measures were 51 to 75%, 25 to 50% and 51 to 75%.
For `Cn1cnc(-c2nc(O)c3scc(-c4cccc(OC(F)(F)F)c4)c3n2)c1` [drawing 3606] the same measures were 1 to 25%, 25 to 50% and 25 to 50%.
Take `Cn1ccnc1-c1nc(NCCOC(F)(F)F)c2c(-c3ccccc3)c(-c3ccccc3)sc2n1` [drawing 3568]: the inhibition at 20 µM on KRas G12C mutant is 1 to 25%; at KRas wild type it was 25 to 50%; on KRas G12D mutant protein it was 25 to 50%.
`Cc1sc2c(O)nc(-c3nccn3C)nc2c1-c1ccc(F)cc1F` [drawing 3621]: the inhibition at 20 µM at KRas G12C mutant, at KRas wild type and on KRas G12D mutant protein was 1 to 25% each time.
`COc1ccc(-c2c(C)sc3c(O)nc(-c4nccn4C)nc23)cn1` [drawing 3601]: the inhibition at 20 µM on KRas G12C mutant, on KRas wild type and at KRas G12D mutant protein was 1 to 25% throughout.
Consider `COCCNc1nc(-c2nccn2C)nc2sc(-c3ccncc3)c(-c3ccccc3)c12` [drawing 3582], for which the results for the inhibition at 20 µM on KRas G12C mutant, on KRas wild type and on KRas G12D mutant protein were 51 to 75%, 76 to 100% and 51 to 75%, respectively.
For the compound `Cn1ccnc1-c1nc(O)c2scc(-c3ccc(F)cc3F)c2n1` [drawing 3616], the values for the inhibition at 20 µM at KRas G12C mutant, on KRas wild type and at KRas G12D mutant protein were 1 to 25%, 1 to 25% and 25 to 50%, respectively.

A word on the inhibition: it is the share of the control response that was lost under treatment.

The record behind these values is US10940139B2, “Compounds that interact with the Ras superfamily for the treatment of cancers, inflammatory diseases, rasopathies, and fibrotic disease” (Shy Therapeutics LLC, priority 2017, dated 2021).
